What was measured:
[1] = biological target: human GABAA receptors composed of the α1β2γ2 subunits (Homo sapiens (Human), UniProt P14867+P18507+P47870); test: α1β2γ2 SyncroPatch automated patch clamp assay; type: cell-based; details: for EC50: HEK cells, potentiation of submaximal GABA current, clamped at −120 mV; for α1β2γ2 EMAX: peak current after GABA+compound divided by peak current after GABA alone
Description: (§1) The SyncroPatch 384PE (Nanion, Germany) automated patch clamp platform was used to obtain recordings from human embryonic kidney cells stably expressing human GABAA receptors composed of the α1β2γ2 and α4β3δ subunits. Cells were bathed in an extracellular solution containing: 140 mM NaCl, 4 mM KCl, 2 mM CaCl2), 1 mM MgCl2, 10 mM HEPES, 5 mM glucose and 0.1% DMSO. Solution was maintained at pH 7.4 with NaOH and 300 mOsm/L. Chips with multi-hole (4×) medium resistance (2-3M) are used for the recombinant cell line experiments. Once harvested, cells are stored in extracellular solution set to 10° C. in the cell hotel with a minimum shaking speed of 200 rpm before addition to the chip at the beginning of each experiment. Whole cell patch clamp recordings were made using an intracellular solution containing: 90 mM KCl, 50 mM KF, 1.5 mM MgCl2, 11.1 mM EGTA and 10 mM HEPES, 2 mM NaATP, maintained at pH 7.2 with KOH. Currents are leak corrected (using P/2 leak correction protocol) and sampled at 5 kHz. Cells were clamped at −120 mV. After establishing a stable baseline, a submaximal concentration of GABA (3-5 μM for cells expressing α1β2γ2 and 10 μM for cells expressing […]) was applied at a rate of 10 μl/second, immediately followed by application of GABA+compound (10 μl/second) at a single concentration of compound per cell. Compounds were tested at six concentrations (0.029, 0.12, 0.47, 1.88, 7.5, and 30 μM) in n=8-12 cells per concentration. Compound effect was determined by dividing peak current amplitude after GABA+compound by peak current amplitude after GABA alone. EC50 and Emax values were determined from average values for each concentration.

[2] = biological target: [35S]-TBPS binding, rat brain cortical membranes; test: Steroid inhibition of [35S]-TBPS binding; details: 3 nM [35S]-TBPS, in the presence of 5 mM GABA
Outline: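 Rat cortical P2 membranes incubated 90 min at room temperature with 3 nM [35S]-TBPS, […] and test compound (0.5% DMSO final) in NaCl/Na–K phosphate pH 7.4; nonspecific binding with […]. Filter-bound radioactivity counted; IC50 and Imax from nonlinear fits, mean ± SEM.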

[3] = biological target: human GABAA receptors composed of the α4β3δ subunits (Homo sapiens (Human), UniProt O14764+P28472+P48169); test: α4β3δ SyncroPatch automated patch clamp assay; type: cell-based; details: for EC50: HEK cells, potentiation of submaximal GABA current, clamped at −120 mV; for α4β3δ EMAX: peak current after GABA+compound divided by peak current after GABA alone
human GABAA receptors composed of the α4β3δ subunits, sequence (P48169 36-554 limits assumed): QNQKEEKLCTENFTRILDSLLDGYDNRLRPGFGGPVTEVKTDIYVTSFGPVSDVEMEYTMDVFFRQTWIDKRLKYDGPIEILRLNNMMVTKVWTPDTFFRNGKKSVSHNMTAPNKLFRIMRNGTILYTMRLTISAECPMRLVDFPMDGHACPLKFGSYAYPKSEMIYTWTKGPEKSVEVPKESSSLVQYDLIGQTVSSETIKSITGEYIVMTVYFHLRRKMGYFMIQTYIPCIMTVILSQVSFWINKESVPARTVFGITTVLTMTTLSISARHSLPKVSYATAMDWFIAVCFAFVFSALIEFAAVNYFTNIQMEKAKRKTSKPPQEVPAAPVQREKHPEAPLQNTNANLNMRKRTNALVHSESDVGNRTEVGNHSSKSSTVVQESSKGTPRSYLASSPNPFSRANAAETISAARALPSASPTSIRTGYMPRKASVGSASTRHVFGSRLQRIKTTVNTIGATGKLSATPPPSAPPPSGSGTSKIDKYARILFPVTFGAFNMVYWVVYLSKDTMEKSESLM
human GABAA receptors composed of the α4β3δ subunits, sequence (P28472 26-473 limits assumed): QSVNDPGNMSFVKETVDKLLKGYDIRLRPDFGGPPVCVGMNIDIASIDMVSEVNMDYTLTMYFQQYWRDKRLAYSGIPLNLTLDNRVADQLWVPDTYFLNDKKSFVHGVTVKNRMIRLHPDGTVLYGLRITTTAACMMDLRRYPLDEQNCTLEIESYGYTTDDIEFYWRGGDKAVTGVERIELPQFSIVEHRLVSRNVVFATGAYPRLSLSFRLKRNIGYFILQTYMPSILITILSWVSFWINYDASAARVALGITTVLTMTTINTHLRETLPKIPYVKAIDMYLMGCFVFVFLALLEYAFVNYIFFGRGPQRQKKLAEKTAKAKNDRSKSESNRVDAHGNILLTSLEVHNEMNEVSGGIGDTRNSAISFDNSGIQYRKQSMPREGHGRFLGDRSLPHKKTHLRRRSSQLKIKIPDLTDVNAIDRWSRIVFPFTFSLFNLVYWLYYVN
human GABAA receptors composed of the α4β3δ subunits, sequence (O14764 17-452 limits assumed): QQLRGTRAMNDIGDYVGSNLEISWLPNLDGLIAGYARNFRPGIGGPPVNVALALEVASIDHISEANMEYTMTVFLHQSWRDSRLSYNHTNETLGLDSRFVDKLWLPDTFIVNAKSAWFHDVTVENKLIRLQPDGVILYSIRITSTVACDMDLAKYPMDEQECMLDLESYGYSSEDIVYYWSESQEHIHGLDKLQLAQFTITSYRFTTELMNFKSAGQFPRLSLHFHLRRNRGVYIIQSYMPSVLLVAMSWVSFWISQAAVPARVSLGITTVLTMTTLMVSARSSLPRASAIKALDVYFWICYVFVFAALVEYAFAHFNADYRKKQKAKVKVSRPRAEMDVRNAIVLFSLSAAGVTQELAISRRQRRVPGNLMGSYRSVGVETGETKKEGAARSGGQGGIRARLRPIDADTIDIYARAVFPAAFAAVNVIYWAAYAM
Description: as §1

human GABAA receptors composed of the α1β2γ2 subunits, sequence (P14867 28-456 limits assumed): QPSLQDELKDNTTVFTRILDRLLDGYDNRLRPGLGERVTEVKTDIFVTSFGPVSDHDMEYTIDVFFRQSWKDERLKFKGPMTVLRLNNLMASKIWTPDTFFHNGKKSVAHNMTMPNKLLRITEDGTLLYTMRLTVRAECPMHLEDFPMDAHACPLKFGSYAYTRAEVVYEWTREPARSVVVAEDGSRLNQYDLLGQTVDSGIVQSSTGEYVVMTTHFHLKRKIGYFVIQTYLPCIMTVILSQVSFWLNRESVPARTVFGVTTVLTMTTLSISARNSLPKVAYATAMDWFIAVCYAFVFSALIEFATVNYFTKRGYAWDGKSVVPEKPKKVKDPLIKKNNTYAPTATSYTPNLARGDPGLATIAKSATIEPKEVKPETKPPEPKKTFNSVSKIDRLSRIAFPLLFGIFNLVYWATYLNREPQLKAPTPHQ
human GABAA receptors composed of the α1β2γ2 subunits, sequence (P47870 25-512 limits assumed): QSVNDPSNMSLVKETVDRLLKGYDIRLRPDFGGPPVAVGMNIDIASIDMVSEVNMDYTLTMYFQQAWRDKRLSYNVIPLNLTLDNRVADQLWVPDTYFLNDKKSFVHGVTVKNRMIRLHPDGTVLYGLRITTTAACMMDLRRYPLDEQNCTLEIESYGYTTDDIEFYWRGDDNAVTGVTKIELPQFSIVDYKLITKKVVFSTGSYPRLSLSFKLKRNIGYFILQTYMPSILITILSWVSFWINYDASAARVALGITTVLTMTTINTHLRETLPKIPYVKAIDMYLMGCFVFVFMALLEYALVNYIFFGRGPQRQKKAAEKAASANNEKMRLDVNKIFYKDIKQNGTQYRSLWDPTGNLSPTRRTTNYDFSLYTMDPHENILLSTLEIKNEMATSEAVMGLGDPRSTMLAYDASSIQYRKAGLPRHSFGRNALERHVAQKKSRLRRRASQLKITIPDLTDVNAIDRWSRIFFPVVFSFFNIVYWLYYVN
human GABAA receptors composed of the α1β2γ2 subunits, sequence (P18507 40-475 limits assumed): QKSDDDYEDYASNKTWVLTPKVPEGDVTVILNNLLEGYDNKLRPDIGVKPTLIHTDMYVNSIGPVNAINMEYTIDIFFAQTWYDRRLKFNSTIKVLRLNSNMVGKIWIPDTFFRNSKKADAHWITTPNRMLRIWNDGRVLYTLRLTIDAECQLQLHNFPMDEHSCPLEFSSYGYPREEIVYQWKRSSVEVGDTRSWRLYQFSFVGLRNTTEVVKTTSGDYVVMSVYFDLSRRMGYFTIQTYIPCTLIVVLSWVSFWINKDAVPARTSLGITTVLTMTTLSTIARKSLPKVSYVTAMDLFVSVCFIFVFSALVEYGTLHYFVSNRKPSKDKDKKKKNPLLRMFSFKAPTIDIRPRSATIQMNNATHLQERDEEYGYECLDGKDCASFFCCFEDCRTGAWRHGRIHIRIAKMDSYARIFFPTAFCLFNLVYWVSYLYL

SMILES	EC50 [1]	α1β2γ2 EMAX [1]	IC50 [2]	EC50 [3]	α4β3δ EMAX [3]
CCC[C@@]1(O)CC[C@@]2(C)[C@H](CC[C@H]3[C@@H]4CC[C@H](C(C)Cn5cc(C#N)cn5)[C@@]4(C)CC(=O)[C@@H]32)C1 (stereo in doubt) [Example 339, 1-((S)-2-((3R,5R,8S,9S,10S,13S,14S,17R)-3-hydroxy-10,13-dimethyl-11-oxo-3-propylhexadecahydro-1H-cyclopenta[a]phenanthren-17-yl)propyl)-1H-pyrazole-4-carbonitrile]	≥ 1000 nM	C (C indicates an Emax response ≥10)	< 100 nM	< 200 nM	C (C indicates an Emax response ≥45)
COC[C@@]1(O)CC[C@H]2[C@H](CC[C@@H]3[C@@H]2CC[C@]2(C)[C@@H]([C@@H](C)Nc4ccc(C#N)cn4)CC[C@@H]32)C1 [Example 41, 6-(((R)-1-((3R,5R,8R,9R,10S,13S,14S,17S)-3-hydroxy-3-(methoxymethyl)-13-methylhexadecahydro-1H-cyclopenta[a]phenanthren-17-yl)ethyl)amino)nicotinonitrile]	≥ 1000 nM	A (A indicates an Emax response <8)	100 to 1000 nM	≥ 1000 nM	B (B indicates an Emax response 30 to <45)
COC[C@@]1(O)CC[C@H]2[C@@H](CC[C@@H]3[C@@H]2CC[C@]2(C)[C@@H]([C@@H](C)Cn4nnc(C)n4)CC[C@@H]32)C1 [Example 53, (3R,5S,8R,9R,10S,13S,14S,17R)-3-(methoxymethyl)-13-methyl-17-((R)-1-(5-methyl-2H-tetrazol-2-yl)propan-2-yl)hexadecahydro-1H-cyclopenta[a]phenanthren-3-ol]	≥ 1000 nM	A (A indicates an Emax response <8)	100 to 1000 nM	≥ 1000 nM	A (A indicates an Emax response <30)
CC[C@@]1(O)CC[C@@]2(C)[C@H](CC[C@@H]3[C@@H]2CC[C@]2(C)[C@@H]([C@@H](C)Cn4ccc(C#N)n4)CC[C@@H]32)C1 [Example 61, 1-((R)-2-((3R,5R,8R,9S,10S,13S,14S,17R)-3-ethyl-3-hydroxy-10,13-dimethylhexadecahydro-1H-cyclopenta[a]phenanthren-17-yl)propyl)-1H-pyrazole-3-carbonitrile]	< 200 nM	C (C indicates an Emax response ≥10)	< 100 nM	< 200 nM	A (A indicates an Emax response <30)
CCC[C@@]1(O)CC[C@H]2[C@H](CC[C@@H]3[C@@H]2CC[C@]2(C)[C@@H]([C@@H](C)Cn4cc(C#N)cn4)CC[C@@H]32)C1 [Example 65, 1-((R)-2-((3R,5R,8R,9R,10S,13S,14S,17R)-3-hydroxy-13-methyl-3-propylhexadecahydro-1H-cyclopenta[a]phenanthren-17-yl)propyl)-1H-pyrazole-4-carbonitrile]	≥ 1000 nM	A (A indicates an Emax response <8)	< 100 nM	< 200 nM	B (B indicates an Emax response 30 to <45)
CCOC[C@@]1(O)CC[C@H]2[C@H](CC[C@@H]3[C@@H]2CC[C@]2(C)[C@@H]([C@@H](C)N(C)S(=O)(=O)c4cccc(C#N)n4)CC[C@@H]32)C1 [Example 72]	200 to 1000 nM	C (C indicates an Emax response ≥10)	< 100 nM	200 to 1000 nM	C (C indicates an Emax response ≥45)
CCOC[C@@]1(O)CC[C@H]2[C@H](CC[C@@H]3[C@@H]2CC[C@]2(C)[C@@H]([C@@H](C)NC(=O)c4ccc(F)cc4F)CC[C@@H]32)C1 [Example 132]	≥ 1000 nM	C (C indicates an Emax response ≥10)	< 100 nM	≥ 1000 nM	B (B indicates an Emax response 30 to <45)
CCOC[C@@]1(O)CC[C@H]2[C@H](CC[C@@H]3[C@@H]2CC[C@]2(C)[C@@H]([C@@H](C)Nc4cccc(N5CCCC5=O)n4)CC[C@@H]32)C1 [Example 263]	200 to 1000 nM	A (A indicates an Emax response <8)	< 100 nM	200 to 1000 nM	A (A indicates an Emax response <30)
CCOC[C@@]1(O)CC[C@H]2[C@H](CC[C@@H]3[C@@H]2CC[C@]2(C)[C@@H]([C@H](C)Cn4cc(C#N)cn4)CC[C@@H]32)C1 [Example 270, 1-((S)-2-((3R,5R,8R,9R,10S,13S,14S,17R)-3-(ethoxymethyl)-3-hydroxy-13-methylhexadecahydro-1H-cyclopenta[a]phenanthren-17-yl)propyl)-1H-pyrazole-4-carbonitrile]	200 to 1000 nM	C (C indicates an Emax response ≥10)	< 100 nM	200 to 1000 nM	C (C indicates an Emax response ≥45)
CC[C@@]1(O)CC[C@H]2[C@H](CC[C@@H]3[C@@H]2CC[C@]2(C)[C@@H]([C@@H](C)Cn4ccc(C#N)n4)CC[C@@H]32)C1 [Example 272, 1-((R)-2-((3R,5R,8R,9R,10S,13S,14S,17R)-3-ethyl-3-hydroxy-13-methylhexadecahydro-1H-cyclopenta[a]phenanthren-17-yl)propyl)-1H-pyrazole-3-carbonitrile]	< 200 nM	C (C indicates an Emax response ≥10)	< 100 nM	< 200 nM	A (A indicates an Emax response <30)
CCC[C@@]1(O)CC[C@H]2[C@H](CC[C@@H]3[C@@H]2CC[C@]2(C)[C@@H]([C@@H](C)Cn4nnc(C)n4)[C@@H](O)C[C@@H]32)C1 [Example 365, (3R,5R,8R,9R,10S,13S,14S,16S,17R)-13-methyl-17-((R)-1-(5-methyl-2H-tetrazol-2-yl)propan-2-yl)-3-propylhexadecahydro-1H-cyclopenta[a]phenanthrene-3,16-diol]	≥ 1000 nM			200 to 1000 nM	
COC[C@@]1(O)CC[C@H]2[C@H](CC[C@@H]3[C@@H]2CC[C@]2(C)[C@@H]([C@@H](C)Cc4ccc(C(F)(F)F)nc4)CC[C@@H]32)C1 [Example 420]	< 200 nM			< 200 nM	
CCOC[C@@]1(O)CC[C@H]2[C@H](CC[C@@H]3[C@@H]2CC[C@]2(C)[C@@H]([C@@H](CC)Cn4ccc(C#N)n4)CC[C@@H]32)C1 [Example 498, 1-((R)-2-((3R,5R,8R,9R,10S,13S,14S,17R)-3-(ethoxymethyl)-3-hydroxy-13-methylhexadecahydro-1H-cyclopenta[a]phenanthren-17-yl)butyl)-1H-pyrazole-3-carbonitrile]			100 to 1000 nM		
CCOC[C@@]1(O)CC[C@H]2[C@H](CC[C@@H]3[C@@H]2CC[C@]2(C)[C@@H]([C@@H](CC)Cn4nccc4C#N)CC[C@@H]32)C1 [Example 500, 1-((R)-2-((3R,5R,8R,9R,10S,13S,14S,17R)-3-(ethoxymethyl)-3-hydroxy-13-methylhexadecahydro-1H-cyclopenta[a]phenanthren-17-yl)butyl)-1H-pyrazole-5-carbonitrile]			1000 to 10000 nM		
CCOC[C@@]1(O)CC[C@H]2[C@H](CC[C@@H]3[C@@H]2CC[C@]2(C)[C@@H]([C@H](CC)Cn4nccc4C#N)CC[C@@H]32)C1 [Example 501, 1-((S)-2-((3R,5R,8R,9R,10S,13S,14S,17R)-3-(ethoxymethyl)-3-hydroxy-13-methylhexadecahydro-1H-cyclopenta[a]phenanthren-17-yl)butyl)-1H-pyrazole-5-carbonitrile]			100 to 1000 nM		
CCOC[C@@]1(O)CC[C@@]2(C)[C@H](CC[C@H]3C4CC[C@H]([C@@H](C)Nc5ccc(-n6ccc(C#N)n6)cn5)[C@@]4(C)CC[C@@H]32)C1 (stereo partly shown) [Example 502]			100 to 1000 nM		
CCOC[C@@]1(O)CC[C@H]2[C@H](CC[C@@H]3[C@@H]2CC[C@]2(C)[C@@H]([C@@H](CC)Nc4ccc(C#N)nc4)CC[C@@H]32)C1 [Example 503]			100 to 1000 nM		
CCOC[C@@]1(O)CC[C@@]2(C)[C@H](CC[C@H]3C4CC[C@H]([C@@H](C)Nc5ccc(-n6cc(C#N)cn6)cn5)[C@@]4(C)CC[C@@H]32)C1 (stereo partly shown) [Example 504]			100 to 1000 nM		
C[C@@]1(O)CC[C@H]2[C@H](CC[C@@H]3[C@@H]2CC[C@]2(C)[C@@H]([C@H](Nc4ccccc4)C(F)(F)F)CC[C@@H]32)C1 [Example 505]			100 to 1000 nM		

Source: patent publication US20230322846A9, “NEUROACTIVE STEROIDS AND THEIR METHODS OF USE” (SAGE THERAPEUTICS, INC., priority 2018, published 2023)
